Data reported in patent publication US20090227489A1, “STAT3 Agonists and Antagonists and Therapeutic Uses Thereof” (Johns Hopkins University, priority 2000, published 2009).

System: B16 cells
Test: Macrophage-mediated antitumor cytotoxicity (3H-TdR incorporation)
Assay type: cell-based, murine
Details: added to macrophages before supernatant; NMA 0.5 mM, catalase 500 U/ml
Method: Macrophages (˜1×10^5) were incubated in 50% supernatants from Stat3β-transfected (S-Stat3β) or GFP-vector transfected (S-GFP) B16 cells for 6 h. The supernatants were replaced by normal complete medium and wild-type B16 cells (1×10^4) were added.
Macrophage-mediated antitumor cytotoxicity. Antitumor cytotoxic activity of macrophages against B16 cells was determined by inhibition of DNA synthesis. Briefly, peritoneal macrophages (1×10^5) were incubated in 50% supernatants derived from either wild type, pIRES-Stat3β or pIRES-GFP transfected, or UV-irradiated B16 cells for 6 h. After replacing the supernatants with normal complete medium, B16 cells (1.0×10^4/well) were added and co-cultured for 48 h with and without peritoneal macrophages. For some experiments, NOS inhibitor, N-monomethyl-L-arginine (NMA) (0.5 mM, Sigma) or H202 quencher, catalase (500 U/ml, Boehringer Mannheim, Indianapolis, Ind.) were added to macrophages before adding supernatant from Stat3β-transfected B16 cells. The co-cultured cells were pulsed with 3H-thymidine (3H-TdR) (0.25 μCi/well) during the last 6 h of incubation to estimate DNA synthesis. 3H-TdR incorporation was determined using a liquid scintillation β-counter (Pharmacia Wallac, Finland).
3H-thymidine incorporation to estimate DNA synthesis and cell proliferation was performed.

Substance: catalase
- effect on macrophage-mediated cytostasis induced by Stat3β supernatant: does not influence macrophage cytotoxic effects against B16 cells
